The text below walks through data of PubChem BioAssay (NCI).

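Following 48 hours of exposure in 96-well plates, responses at five concentrations were used to interpolate endpoints linearly. Abbreviation: GI50, concentration required for 50% inhibition of growth. The concentration for full growth arrest is given as TGI.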

The first assay relates to SN12C renal. Nature of the assay: growth of human tumour cells (NCI), 48 h.
For `COc1ccc(/C(COc2ccc3c(=O)cc(-c4ccccc4)oc3c2)=N\O)cc1`, the GI50 was 9.36 µM and the TGI was 36.4 µM.
`COc1ccc(Br)c(N/N=C2\CCCNC2=O)c1` displayed a TGI of more than 100 µM.
For `COc1cc2c(c(OC)c1OC)-c1ccc(SC)c(=O)cc1C(CO)C2` (stereo not drawn), the GI50 is less than 0.01 µM and the TGI is more than 100 µM.
`CC(C)C1CC[C@@H](C)C[C@@]1(O)CC(N)=O` (stereo partly drawn): the TGI is more than 100 µM.
As to `CCC[CH2][Sn]1([CH2]CCC)[O]C(=O)c2cccnc2[O]1`, the GI50 was 2.58 µM and the TGI was 8.79 µM.
`COC1CC(OS(=O)(=O)c2ccc([N+](=O)[O-])cc2)C(OC(=O)c2ccccc2)C(C)O1` (stereo not drawn) had a TGI of more than 100 µM.
On the same count and under the same terms, in the case of `CCOc1ccccc1N1C(=O)C(=O)C(c2nc3ccccc3o2)C(=O)C1=O` it was more than 100 µM; in that of `CCS(CC)(CC)CC1CCCC2=CCC(P(=O)(c3ccccc3)c3ccccc3)CC21` (stereo not drawn), 26.3 µM.
As to `CC(C)(C)n1cc(-c2ccnc(NCCCNS(=O)(=O)c3ccc(C(F)(F)F)cc3)c2)c(-c2cccc(O)c2)n1`, the GI50 was 1.61 µM and the TGI is 3.03 µM.
The molecule `Cn1cc(C(=O)NCCC(=N)N)cc1NC(=O)C1=[N+](C)C=C(NC(=O)c2cccc(C(=O)NC3=CC(C(=O)Nc4cc(C(=O)NCCC(=N)N)cn4C)=[N+](C)C3)c2)C1` gave a TGI of more than 100 µM.
For the molecule `C=C1C(=O)O[C@H]2[C@H]1CC/C(COC(=O)NCc1ccc(Cn3c(=O)sn(CCCl)c3=O)cc1)=C\CC[C@@]1(C)O[C@@H]21`, the GI50 is 2.01 µM and the TGI is 4.28 µM.
In the case of `COc1ccc2c(c1)c(=O)oc1cc(OC/C(C)=N\O)ccc12`, the GI50 was more than 100 µM and the TGI was more than 100 µM.

In a further assay the test system is 786-0 renal. Put plainly: growth of human tumour cells (NCI), 48 h.
`CCN(CC)c1c(C(=O)/C=C/c2ccc(OC)cc2)c(-c2ccccc2)nn(C)c1=O` had a TGI of 41.2 µM.
`CN1C(=Nc2ccccc2)SC1=Nc1ccccc1`: the TGI is more than 100 µM.
Same read-out and setting: to `O=C(O)C(/C=C/c1ccccc1)c1ccccc1` (stereo not drawn) belongs more than 100 µM; to `Oc1ccccc1/C=C/c1csnn1`, more than 31.6 µM; to `CP1(=O)CCCCC1`, more than 100 µM.
Molecule `Cc1ccc(S(=O)(=O)OC2CSS(=O)CC2OS(=O)(=O)c2ccc(C)cc2)cc1` (stereo not drawn) yielded a TGI of 30.5 µM.
With `COc1cc2c(cc1C)NC(=O)/C2=C/c1ccccn1`, the GI50 is 2.48 µM and the TGI was 8.38 µM.
`O=[N+]([O-])c1cc(C(F)(F)F)cc([N+](=O)[O-])c1CCl` registered a TGI of 8.21 µM.
Molecule `CCOC(=O)N1CCN(C=S)CC1` came in with a TGI of more than 100 µM.
In turn, `COc1cc2ccc(/C=C\[N+](=O)[O-])cc2cc1OC` displayed a TGI of 3.09 µM.
In turn, `COc1cc([C@@H]2OC[C@@H]3C(c4cc(OC)c5c(c4)OCO5)OC[C@@H]32)cc(OC)c1OC` (stereo partly drawn) returned a TGI of more than 100 µM.
For the molecule `Oc1c(C(Nc2cccc3cccnc23)c2ccccc2)ccc2cccnc12` (stereo not drawn), the TGI is more than 100 µM.
`COc1ccc(/C(COc2ccc3c(=O)cc(-c4ccccc4)oc3c2)=N\O)cc1`: the GI50 is 17.2 µM and the TGI was more than 50 µM.
As to `COc1ccc(Br)c(N/N=C2\CCCNC2=O)c1`, the TGI was more than 100 µM.
Regarding `COc1cc2c(c(OC)c1OC)-c1ccc(SC)c(=O)cc1C(CO)C2` (stereo not drawn), the GI50 was less than 0.01 µM and the TGI was more than 100 µM.
`CC(C)C1CC[C@@H](C)C[C@@]1(O)CC(N)=O` (stereo partly drawn) showed a TGI of more than 100 µM.
For the molecule `CCC[CH2][Sn]1([CH2]CCC)[O]C(=O)c2cccnc2[O]1`, the GI50 was 2.62 µM and the TGI came to 8.01 µM.
`COC1CC(OS(=O)(=O)c2ccc([N+](=O)[O-])cc2)C(OC(=O)c2ccccc2)C(C)O1` (stereo not drawn) gave a TGI of more than 100 µM.
Consider `CCOc1ccccc1N1C(=O)C(=O)C(c2nc3ccccc3o2)C(=O)C1=O`, for which the TGI was found to be 65 µM.
As for `CCS(CC)(CC)CC1CCCC2=CCC(P(=O)(c3ccccc3)c3ccccc3)CC21` (stereo not drawn), the TGI worked out at 26.1 µM.
As for `CC(C)(C)n1cc(-c2ccnc(NCCCNS(=O)(=O)c3ccc(C(F)(F)F)cc3)c2)c(-c2cccc(O)c2)n1`, the GI50 was 1.8 µM and the TGI was found to be 3.38 µM.
In turn, `Cn1cc(C(=O)NCCC(=N)N)cc1NC(=O)C1=[N+](C)C=C(NC(=O)c2cccc(C(=O)NC3=CC(C(=O)Nc4cc(C(=O)NCCC(=N)N)cn4C)=[N+](C)C3)c2)C1` showed a TGI of more than 100 µM.
As for `C=C1C(=O)O[C@H]2[C@H]1CC/C(COC(=O)NCc1ccc(Cn3c(=O)sn(CCCl)c3=O)cc1)=C\CC[C@@]1(C)O[C@@H]21`, the GI50 was 1.79 µM and the TGI worked out at 3.27 µM.
For `COc1ccc2c(c1)c(=O)oc1cc(OC/C(C)=N\O)ccc12`, the GI50 is more than 100 µM and the TGI was more than 100 µM.

The test system of another assay is SR leukemia. Put plainly: growth of human tumour cells (NCI), 48 h.
`CCN(CC)c1c(C(=O)/C=C/c2ccc(OC)cc2)c(-c2ccccc2)nn(C)c1=O` registered a TGI of 44.7 µM.
For the molecule `CN1C(=Nc2ccccc2)SC1=Nc1ccccc1`, the TGI is more than 100 µM.
`O=C(O)C(/C=C/c1ccccc1)c1ccccc1` (stereo not drawn) showed a TGI of more than 100 µM.
The molecule `Oc1ccccc1/C=C/c1csnn1` yielded a TGI of more than 68 µM.
For `CP1(=O)CCCCC1`, the TGI is more than 100 µM.
Still for that read-out and setting: in the case of `Cc1ccc(S(=O)(=O)OC2CSS(=O)CC2OS(=O)(=O)c2ccc(C)cc2)cc1` (stereo not drawn) it was 8.15 µM.
With `COc1cc2c(cc1C)NC(=O)/C2=C/c1ccccn1`, the GI50 was 3.18 µM and the TGI is more than 100 µM.
The molecule `O=[N+]([O-])c1cc(C(F)(F)F)cc([N+](=O)[O-])c1CCl` showed a TGI of 2.72 µM.
Consider `CCOC(=O)N1CCN(C=S)CC1`, for which the TGI is more than 100 µM.
Same read-out and setting: to `COc1cc2ccc(/C=C\[N+](=O)[O-])cc2cc1OC` belongs 5.28 µM; to `COc1cc([C@@H]2OC[C@@H]3C(c4cc(OC)c5c(c4)OCO5)OC[C@@H]32)cc(OC)c1OC` (stereo partly drawn), more than 100 µM.
For `Oc1c(C(Nc2cccc3cccnc23)c2ccccc2)ccc2cccnc12` (stereo not drawn), the TGI is 10.4 µM.
`COc1ccc(/C(COc2ccc3c(=O)cc(-c4ccccc4)oc3c2)=N\O)cc1`: the GI50 was 6.61 µM and the TGI is more than 32 µM.
`COc1ccc(Br)c(N/N=C2\CCCNC2=O)c1` returned a TGI of more than 100 µM.
For the molecule `COc1cc2c(c(OC)c1OC)-c1ccc(SC)c(=O)cc1C(CO)C2` (stereo not drawn), the GI50 is less than 0.01 µM and the TGI is 23.8 µM.
In turn, `CC(C)C1CC[C@@H](C)C[C@@]1(O)CC(N)=O` (stereo partly drawn) showed a TGI of more than 100 µM.
